We go through 20 molecules from patent US8163929B2, “Dihydropyridone amides as P2X7 modulators” (Roche Palo Alto LLC, priority 2008, dated 2012).

Each structure is given as a SMILES string.

This assay has as its target T1, P2X7 (UniProt Q99572).
T1 sequence (Q99572 1-595): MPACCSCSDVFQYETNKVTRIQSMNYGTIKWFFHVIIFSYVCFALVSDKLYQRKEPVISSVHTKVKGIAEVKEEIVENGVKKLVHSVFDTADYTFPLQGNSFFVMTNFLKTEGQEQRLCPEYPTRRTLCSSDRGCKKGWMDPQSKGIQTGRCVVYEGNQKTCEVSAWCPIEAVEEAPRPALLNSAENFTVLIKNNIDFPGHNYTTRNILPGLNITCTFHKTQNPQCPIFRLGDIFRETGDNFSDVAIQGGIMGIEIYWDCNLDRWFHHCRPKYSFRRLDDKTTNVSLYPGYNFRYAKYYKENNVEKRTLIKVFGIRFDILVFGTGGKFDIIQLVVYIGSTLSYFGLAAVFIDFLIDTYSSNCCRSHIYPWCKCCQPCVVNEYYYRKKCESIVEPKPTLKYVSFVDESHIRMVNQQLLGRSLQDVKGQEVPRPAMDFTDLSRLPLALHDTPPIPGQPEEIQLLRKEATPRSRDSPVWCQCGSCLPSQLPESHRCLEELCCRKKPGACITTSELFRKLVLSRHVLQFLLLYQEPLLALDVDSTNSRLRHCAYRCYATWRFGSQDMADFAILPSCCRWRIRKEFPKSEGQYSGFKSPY
The experiment in a line: P2X7 activity of Table 1. The format is cell-based. The following applies: pIC50 values for P2X7. The protocol:
Stock solutions of compounds were prepared from powders as a 10 mM DMSO stock solution. These solutions were stored at RT during the two week period of these experiments to prevent freeze-thaw of the DMSO stocks. The DMSO stocks were added to the appropriate assay buffer at a concentration of 10 μM, and then diluted serially to the final concentrations that were tested. […] The aqueous solutions of compounds as well as ATP (Sigma A7699) and BzATP (Sigma B6396) were prepared fresh for each day of experiment.
1321N1 cells stably expressing the full length human P2X7 gene (1321N1-hP2X7) and HEK293 cells stably expressing the full length rat P2X7 gene (HEK293-rP2X7) were obtained from the Roche Cell Culture Facility. 1321N1-hP2X7 cells were grown in Dulbecco's Modified Eagle's Medium (DMEM) high glucose supplemented with 10% FBS and 250 μg/mL G418. HEK293-rP2X7 cells were grown in DMEM/F-12 supplemented with 10% FBS, 1 mM CaCl2, 2 mM MgCl2, 2 mM L-Glutamine and 500 μg/ml G418. Cells were split such that they never became >70% confluent.
On the day prior to the experiment, 1321N1-hP2X7 or HEK293-rP2X7 cells were released into suspension with calcium-free PBS+Versene and washed by centrifugation with calcium-free PBS to remove the Versene. Cells were resuspended in growth medium at a density of 2.5×10^5 cells/mL and seeded into black walled, clear bottom 96 well plates (50,000 cells/well) approximately 18 hr prior to intracellular calcium flux experiments.
On the day of the experiment, plates were washed with FLIPR buffer (calcium- and magnesium-free Hank's Balanced Salt Solution (HBSS) supplemented with 10 mM Hepes, 2.5 mM probenecid and 2 mM calcium chloride) using a BIO-TEK 96 channel plate washer and incubated with […] fluo-3 dye at 37° C. for one hr. The dye was then removed by plate washing and the cells were allowed to equilibrate for 20 min at room temperature with antagonist or vehicle (FLIPR buffer). Agonist (100 μM BzATP final concentration for hP2X7; 5 μM BzATP final concentration or rP2X7) was added online with the FLIPR and fluorescence measurements made at 1 sec intervals for 60 sec followed by 3 sec intervals for a further 4 min (5 min total). A final addition of 5 μM ionomycin was made and the maximal BzATP-evoked fluorescence normalized to the maximal ionomycin-evoked fluorescence.
One may read the pIC50 as the IC50 on a negative log10 scale, so that one unit is a factor of ten. Low values mean a high IC50, high ones a low IC50. With `Cc1cc(-c2cc(NC(=O)C3=CNC(=O)C[C@H]3c3ccc(F)cc3)ccc2Cl)n[nH]1` [Compound 36, (S)-4-(4-Fluoro-phenyl)-6-oxo-1,4,5,6-tetrahydro-pyridine-3-carboxylic acid [4-chloro-3-(5-methyl-1H-pyrazol-3-yl)-phenyl]-amide], the pIC50 came out at 5.92. In turn, `Cc1ccc(-n2ncc(=O)n(C)c2=O)cc1NC(=O)C1=CNC(=O)C[C@H]1c1ccc(F)cc1` [Compound 37, (S)-4-(4-Fluoro-phenyl)-6-oxo-1,4,5,6-tetrahydro-pyridine-3-carboxylic acid [2-methyl-5-(4-methyl-3,5-dioxo-4,5-dihydro-3H-[1,2,4]triazin-2-yl)-phenyl]-amide] returned a pIC50 of 7.76.

For the molecule `Cc1ccc(-c2cc(C)n(CCO)n2)cc1NC(=O)C1=CN(C)C(=O)C[C@H]1c1ccc(F)cc1` [Compound 38, (S)-4-(4-Fluoro-phenyl)-1-methyl-6-oxo-1,4,5,6-tetrahydro-pyridine-3-carboxylic acid {5-[1-(2-hydroxy-ethyl)-5-methyl-1H-pyrazol-3-yl]-2-methyl-phenyl}-amide], the pIC50 amounted to 7.46. Regarding `Cc1ccc(-n2ncc(=O)n(CCO)c2=O)cc1NC(=O)C1=CNC(=O)C[C@H]1c1ccc(F)cc1` [Compound 39, (S)-4-(4-Fluoro-phenyl)-6-oxo-1,4,5,6-tetrahydro-pyridine-3-carboxylic acid {5-[4-(2-hydroxy-ethyl)-3,5-dioxo-4,5-dihydro-3H-[1,2,4]triazin-2-yl]-2-methyl-phenyl}-amide], the pIC50 is given as 7.76. `Cc1cc(-c2ccc(C)c(NC(=O)C3=CNC(=O)C[C@H]3c3ccc(F)cc3)c2)no1` [Compound 40, (S)-4-(4-Fluoro-phenyl)-6-oxo-1,4,5,6-tetrahydro-pyridine-3-carboxylic acid [2-methyl-5-(5-methyl-isoxazol-3-yl)-phenyl]-amide] returned a pIC50 of 7.183.

Regarding `Cc1cc(-c2cc(NC(=O)C3=CNC(=O)C[C@H]3c3ccc(F)cc3)c(C)cc2F)n[nH]1` [Compound 41, (S)-4-(4-Fluoro-phenyl)-6-oxo-1,4,5,6-tetrahydro-pyridine-3-carboxylic acid [4-fluoro-2-methyl-5-(5-methyl-1H-pyrazol-3-yl)-phenyl]-amide], the pIC50 stood at 8.048. Turning to `COCCn1nc(-c2ccc(C)c(NC(=O)C3=CNC(=O)C[C@H]3c3ccc(F)cc3)c2)cc1C` [Compound 42, (S)-4-(4-Fluoro-phenyl)-6-oxo-1,4,5,6-tetrahydro-pyridine-3-carboxylic acid {5-[1-(2-methoxy-ethyl)-5-methyl-1H-pyrazol-3-yl]-2-methyl-phenyl}-amide], the pIC50 amounted to 7.3. In the case of `Cc1ccc(-c2cnccn2)cc1NC(=O)C1=CNC(=O)C[C@H]1c1ccc(F)cc1` [Compound 43, (S)-4-(4-Fluoro-phenyl)-6-oxo-1,4,5,6-tetrahydro-pyridine-3-carboyxlic acid (2-methyl-5-pyrazin-2-yl-phenyl)-amide], the pIC50 is 7.54. The figure for `Cc1ccc(-c2ccc(C)c(NC(=O)C3=CNC(=O)C[C@H]3c3ccc(F)cc3)c2)nn1` [Compound 44, (S)-4-(4-Fluoro-phenyl)-6-oxo-1,4,5,6-tetrahydro-pyridine-3-carboxylic acid [2-methyl-5-(6-methyl-pyridazin-3-yl)-phenyl]-amide] is 7.567; for `Cc1cnc(-c2ccc(C)c(NC(=O)C3=CNC(=O)C[C@H]3c3ccc(F)cc3)c2)cn1` [Compound 45, (S)-4-(4-Fluoro-phenyl)-6-oxo-1,4,5,6-tetrahydro-pyridine-3-carboxylic acid [2-methyl-5-(5-methyl-pyrazin-2-yl)-phenyl]-amide] it is 7.01. As to `Cc1ccc(N2CCCC2)cc1NC(=O)C1=CNC(=O)C[C@H]1c1ccc(F)cc1` [Compound 46, (S)-4-(4-Fluoro-phenyl)-6-oxo-1,4,5,6-tetrahydro-pyridine-3-carboxylic acid (2-methyl-5-pyrrolidin-1-yl-phenyl)-amide], the pIC50 amounted to 7.873.

`Cc1ccc(N2CCOCC2)cc1NC(=O)C1=CNC(=O)C[C@H]1c1ccc(F)cc1` [Compound 47, (S)-4-(4-Fluoro-phenyl)-6-oxo-1,4,5,6-tetrahydro-pyridine-3-carboxylic acid (2-methyl-5-morpholin-4-yl-phenyl)-amide] had a pIC50 of 6.3. With `COCCn1c(C)nnc1-c1ccc(C)c(NC(=O)C2=CNC(=O)C[C@H]2c2ccc(F)cc2)c1` [Compound 48, (S)-4-(4-Fluoro-phenyl)-6-oxo-1,4,5,6-tetrahydro-pyridine-3-carboxylic acid {5-[4-(2-methoxy-ethyl)-5-methyl-4H-[1,2,4]triazol-3-yl]-2-methyl-phenyl}-amide], the pIC50 was determined as 5.86. `Cc1cn(-c2ccc(C)c(NC(=O)C3=CNC(=O)C[C@H]3c3ccc(F)cc3)c2)cn1` [Compound 49, (S)-4-(4-Fluoro-phenyl)-6-oxo-1,4,5,6-tetrahydro-pyridine-3-carboxylic acid [2-methyl-5-(4-methyl-imidazol-1-yl)-phenyl]-amide] came in with a pIC50 of 6.855. Consider `CCOC(=O)Cn1nc(-c2ccc(C)c(NC(=O)C3=CNC(=O)C[C@H]3c3ccc(F)cc3)c2)cc1C` [Compound 50, [3-(3-{[(S)-4-(4-Fluoro-phenyl)-6-oxo-1,4,5,6-tetrahydro-pyridine-3-carbonyl]-amino}-4-methyl-phenyl)-5-methyl-pyrazol-1-yl]-acetic acid ethyl ester], for which the pIC50 is on record as 7.145.

In turn, `Cc1ccc(-c2ncccn2)cc1NC(=O)C1=CNC(=O)C[C@H]1c1ccc(F)cc1` [Compound 51, (S)-4-(4-Fluoro-phenyl)-6-oxo-1,4,5,6-tetrahydro-pyridine-3-carboxylic acid (2-methyl-5-pyrimidin-2-yl-phenyl)-amide] registered a pIC50 of 7.87.

`Cc1ccc(-c2cncnc2)cc1NC(=O)C1=CNC(=O)C[C@H]1c1ccc(F)cc1` [Compound 52, (S)-4-(4-Fluoro-phenyl)-6-oxo-1,4,5,6-tetrahydro-pyridine-3-carboxylic acid (2-methyl-5-pyrimidin-5-yl-phenyl)-amide] returned a pIC50 of 6.425.

`Cc1nccc(-c2ccc(C)c(NC(=O)C3=CNC(=O)C[C@H]3c3ccc(F)cc3)c2)n1` [Compound 53, (S)-4-(4-Fluoro-phenyl)-6-oxo-1,4,5,6-tetrahydro-pyridine-3-carboxylic acid [2-methyl-5-(2-methyl-pyrimidin-4-yl)-phenyl]-amide] displayed a pIC50 of 7.325. `Cc1cc(-c2ccc(C)c(NC(=O)C3=CNC(=O)C[C@H]3c3ccc(F)cc3)c2)ccn1` [Compound 54, (S)-4-(4-Fluoro-phenyl)-6-oxo-1,4,5,6-tetrahydro-pyridine-3-carboxylic acid [2-methyl-5-(2-methyl-pyridin-4-yl)-phenyl]-amide] gave a pIC50 of 7.045. Regarding `Cc1ccc(-c2c(Cl)cn[nH]c2=O)cc1NC(=O)C1=CNC(=O)C[C@H]1c1ccc(F)cc1` [Compound 55, (S)-4-(4-Fluoro-phenyl)-6-oxo-1,4,5,6-tetrahydro-pyridine-3-carboxylic acid [5-(5-chloro-3-oxo-2,3-dihydro-pyridazin-4-yl)-2-methyl-phenyl]-amide], the pIC50 was 7.54.
